Measurements reported in paper PMC12655351, “Synthesis and Anticancer Activity Evaluation of New 5-((5-Nitrofuran-2-yl)allylidene)-2-thioxo-4-thiazolidinones” (Pharmaceuticals, 2025).

Key:
[1] = system: MCF-7 cell line; experiment: Annexin V-FITC/propidium iodide flow cytometry; assay type: cell-based, human; settings: 24 h
Description: The three chosen compounds, 2b, 12b, and 14b, were tested using Annexin V-FITC and propidium iodide to assess their effects on apoptosis induction on MCF-7 and MDA-MB-231 cell lines. To evaluate the population of cells, four states were determined: unstained cells (alive), cells stained with propidium iodide (necrotic), cells stained with FITC-labeled Annexin V (early apoptotic), and cells stained with both Annexin V and propidium iodide (late apoptotic). […] In a concentration of 5 μM the values were 8.5% and 12.2%, respectively. For 12b in a concentration equal to 1 μM, the obtained results showcased 7.2% of cells in early and late apoptosis and 0.7% in a state of necrosis. For 5 μM concentration results were 23.7% and 11.5%, respectively.
(§1) To conduct induction of apoptosis on MCF-7 and MDA-MB-231 cell lines, three compounds with the lowest IC50 values were selected (2b, 12b, 14b). The concentration of these compounds depended on the cell line. For MCF-7 cell line concentrations of 1 and 5 μM were used, while for MDA-MB-231 cell line concentrations were 5 and 10 μM. For both cell lines doxorubicin was used as a reference compound in 1 and 5 μM concentrations. This study was evaluated using a flow cytometer (BD FACSCanto II, Becton Dickinson Biosciences Systems, San Jose, CA, USA) and Annexin V binding Apoptosis Detection Kit II (BD Biosciences, San Diego, CA, USA). Cells were seeded in 6-well culture plates cultured in accordance with the previously described methodology. The medium was removed from wells and then cells were washed with PBS. A cell suspension was prepared in the binding buffer provided in the kit at a concentration of 1 × 10^6 cells/mL. A total of 100 µL of cell suspension was collected from each sample and transferred to the tubes. Afterwards, 5 µL of Annexin V-FITC and 4 µL of propidium iodide (PI) were added to each tube and then the tubes were incubated in the dark for 15 min at room temperature. After incubation, the suspension was supplemented to 300 µL with a binding buffer and immediately read in a BD FACSCanto II flow cytometer (Becton Dickinson Biosciences, San Jose, CA, USA), where 10,000 events per sample were measured. Results were analyzed using FACSDiva Software Version 6.1.3. (BD Biosciences Systems, San Jose, CA, USA).

[2] = system: MDA-MB-231 cell line; experiment: Annexin V-FITC/propidium iodide flow cytometry; assay type: cell-based, human; settings: 24 h
Description: Similarly to Figure 3, Figure 4 showcases the flow cytometric assessment of compounds effects on apoptosis induction on the MDA-MB-231 cell line after 24 h of incubation with tested structures. For this cell line, based on previous results, higher concentrations of tested compounds were chosen: 5 and 10 μM. […] At the same time, compound 12b showcased 7.3% of early and late apoptotic cells, 1.2% of necrotic cells in 5 μM concentration, and 13.8% and 22.3% in 10 μM concentration, consequently.
as §1

[3] = system: caspase-3 in MDA-MB-231 cells; experiment: caspase-3 ELISA; assay type: cell-based, human; settings: MDA-MB-231, 10 μM (highest concentration), 24 h
Description: To confirm the activity of the caspase pathway, an effector caspase-3 was assayed on MCF-7 and MDA-MB-231 cell lines after 24 h of treatment using the ELISA method. Novel 4-thiazolidinone derivatives were tested in concentrations of 1 and 5 μM for the MCF-7 cell line and 5 and 10 μM for the MDA-MB-231 cell line.
Using a SimpleStep ELISA kit (Abcam, Cambridge, UK), we determined the levels of cytochrome C and caspase-3 in cells’ lysates with 2b, 12b, and 14b (1 and 5 μM for the MCF-7 cell line and 5 and 10 μM for the MDA-MB-231) and doxorubicin in concentrations of 1 and 5 μM for both lines after 24 h incubation. Assays were performed according to the manufacturer’s protocols.

[4] = system: COLO 205; experiment: cells; settings: Homo sapiens, COLO 205, 48 h; for CC50: read-out: LC50, COLO 205, 48 h
[5] = system: HCC-2998; experiment: cells; settings: Homo sapiens, HCC 2998, 48 h
[6] = system: NCI-H522; experiment: NCI-60 SRB screen; settings: for GI50 / CC50: Homo sapiens; for GI50 / CC50 / TGI: NCI-H522, 48 h; for CC50: read-out: LC50, NCI-H522, 48 h
[7] = system: EKVX; settings: human, 48 h
[8] = system: NCI-H266; settings: human, 48 h
[9] = system: NCI-H322M; settings: human, 48 h
[10] = system: SF-295; settings: human, 48 h
[11] = system: SNB-19; settings: human, 48 h
[12] = system: SNB-75; settings: human, 48 h
[13] = system: SK-MEL-2; settings: human, 48 h
[14] = system: ACHN; settings: human, 48 h

SMILES	cells in late and early apoptosis combined ([1]; MCF-7, 1 μM) [%]	necrotic cell population ([1]; MCF-7, 1 μM) [%]	cells in late and early apoptosis combined ([1]; MCF-7, 5 μM) [%]	necrotic cell population ([1]; MCF-7, 5 μM) [%]	combined apoptotic cells ([2]; MDA-MB-231, 5 μM) [%]	necrotic cells ([2]; MDA-MB-231, 5 μM) [%]	combined apoptotic cells ([2]; MDA-MB-231, 10 μM) [%]	necrotic cells ([2]; MDA-MB-231, 10 μM) [%]	change of caspase-3 concentration [3]	GI50 [4] [µM]	CC50 [4] [µM]	GI50 [5] [µM]	GI50 [6] [µM]	CC50 [6] [µM]	TGI [6] [µM]	also measured
CC(C(=O)O)N1C(=O)/C(=C/C=C/c2ccc([N+](=O)[O-])o2)SC1=S (centres unmarked) [2b, 2-((Z)-5-((E)-3-(5-Nitrofuran-2-yl)allylidene)-4-oxo-2-thioxothiazolidin-3-yl)propanoic acid]	7.7	0.7	8.5	12.2	7.8	6.6	7.5	44	slight increase	–	–	–	–	–	–	–
CCCC(C(=O)O)N1C(=O)/C(=C/C=C/c2ccc([N+](=O)[O-])o2)SC1=S (centres unmarked) [4b, 2-((Z)-5-((E)-3-(5-Nitrofuran-2-yl)allylidene)-4-oxo-2-thioxothiazolidin-3-yl)pentanoic acid]	–	–	–	–	–	–	–	–	–	1.95	6.66	1.83	1.7	6.48	3.32	–
CC(C)C(C(=O)O)N1C(=O)/C(=C/C=C/c2ccc([N+](=O)[O-])o2)SC1=S (centres unmarked) [5b, 3-Methyl-2-((Z)-5-((E)-3-(5-nitrofuran-2-yl)allylidene)-4-oxo-2-thioxothiazolidin-3-yl)butanoic acid]	–	–	–	–	–	–	–	–	–	1.33	5.83	1.72	1.12	5.69	2.53	–
CCCCC(C(=O)O)N1C(=O)/C(=C/C=C/c2ccc([N+](=O)[O-])o2)SC1=S (centres unmarked) [6b, 2-((Z)-5-((E)-3-(5-nitrofuran-2-yl)allylidene)-4-oxo-2-thioxothiazolidin-3-yl)hexanoic acid]	–	–	–	–	–	–	–	–	–	2.02	6.65	1.83	1.74	6.78	3.43	–
O=C(O)C(c1ccccc1)N1C(=O)/C(=C/C=C/c2ccc([N+](=O)[O-])o2)SC1=S (centres unmarked) [9b, 2-((Z)-5-((E)-3-(5-Nitrofuran-2-yl)allylidene)-4-oxo-2-thioxothiazolidin-3-yl)-2-phenylacetic acid]	–	–	–	–	–	–	–	–	–	6.65	60.4	15.6	4.09	64.6	19.1	growth GP ([6]; NCI-H522, 10 μM, 48 h): -88.21%
O=C(O)CCN1C(=O)/C(=C/C=C/c2ccc([N+](=O)[O-])o2)SC1=S [12b, 3-((Z)-5-((E)-3-(5-Nitrofuran-2-yl)allylidene)-4-oxo-2-thioxothiazolidin-3-yl)propanoic acid]	7.2	0.7	23.7	11.5	7.3	1.2	13.8	22.3	significant increase	–	–	–	1.1	5.52	2.46	–
O=C(O)CCCN1C(=O)/C(=C/C=C/c2ccc([N+](=O)[O-])o2)SC1=S [13b, 4-((Z)-5-((E)-3-(5-Nitrofuran-2-yl)allylidene)-4-oxo-2-thioxothiazolidin-3-yl)butanoic acid]	–	–	–	–	–	–	–	–	–	–	–	–	–	–	–	CC50 [7]: 6.05 µM; CC50 [8]: > 100 µM; CC50 [9]: 22.8 µM; CC50 [10]: 5.08 µM; CC50 [11]: 5.5 µM; CC50 [12]: 5.49 µM; CC50 [13]: 4.2 µM; CC50 [14]: 3.72 µM
O=C(O)CCCCCN1C(=O)/C(=C/C=C/c2ccc([N+](=O)[O-])o2)SC1=S [14b, 6-((Z)-5-((E)-3-(5-nitrofuran-2-yl)allylidene)-4-oxo-2-thioxothiazolidin-3-yl)hexanoic acid]	6.9	0.6	29.2	11.7	5.7	1.4	28.8	42.6	at least two times more	1.56	6.05	1.78	–	–	–	CC50 [7]: 7.52 µM; CC50 [8]: 96.3 µM; CC50 [9]: 6.92 µM; CC50 [10]: 6.61 µM; CC50 [11]: 6.67 µM; CC50 [12]: 4.03 µM; CC50 [13]: 6.87 µM; CC50 [14]: 5 µM
